Measurements taken from EP1561465A2, “Methods of use of fluoroquinolone compounds against bacteria” (LG Life Sciences, Ltd., priority 1999, dated 2001).
≈ marks a conversion by molar mass, not a printed value. Read-outs that look alike come from different tables or passages of the source.

Columns and labels:
[1] = system: Shigella spp.; assay: MIC by agar dilution (NCCLS M7-A4), 288 enteropathogenic isolates, gemifloxacin and 15 other antimicrobials; assay type: cell-based; settings: for MIC: Shigella spp. N= 21
How it was run: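 Agar dilution with ~10^4 cfu/spot inoculum; plates incubated aerobically at 35 °C for 24 h, except C. jejuni, held microaerophilically for 48 h. MIC taken as lowest antibiotic concentration with no visible growth.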

[2] = system: Yersinia enterocolitica; assay: as above; assay type: cell-based; settings: for MIC: Yersinia enterocolitica N= 22
[3] = system: Salmonella spp.; assay: as above; assay type: cell-based; settings: for MIC: Salmonella
[4] = system: Moraxella catarrhalis; assay: MIC by two-fold serial agar dilution, Sensitivity Disk agar-N (Kitasato isolates); assay type: cell-based; settings: Moraxella catarrhalis (22)
[5] = system: Streptococcus pneumoniae; assay: as above; assay type: cell-based; settings: for MIC90 / MIC / MIC50: Streptococcus pneumoniae; for MIC90: read-out: MIC90; for MIC: read-out: MIC Range; for MIC50: read-out: MIC50
[6] = system: Aeromonas spp.; assay: MIC by agar dilution (NCCLS M7-A4), 288 enteropathogenic isolates, gemifloxacin and 15 other antimicrobials; assay type: cell-based; settings: for MIC: Aeromonas spp. N= 16
[7] = system: Staphylococcus aureus; assay: microbe, parasite or virus in culture; assay type: cell-based
[8] = system: Campylobacter jejuni; assay: MIC by agar dilution (NCCLS M7-A4), 288 enteropathogenic isolates, gemifloxacin and 15 other antimicrobials; settings: Campylobacter jejuni
[9] = system: Haemophilus influenzae; assay: MIC by two-fold serial agar dilution, Sensitivity Disk agar-N (Kitasato isolates); assay type: cell-based; settings: Haemophilus influenzae (24)
[10] = system: Hafnia alvei; assay: MIC by agar dilution (NCCLS M7-A4), 288 enteropathogenic isolates, gemifloxacin and 15 other antimicrobials; assay type: cell-based; settings: Hafnia alvei N= 32
[11] = 24 h, read-out: MIC (mg/L) Range
[12] = 18 h, Ciprofloxacin-resistant (21), ciprofloxacin MIC ≥8 µg/ml
[13] = 18 h, Ciprofloxacin-resistant (21)
[14] = 18 h, Erythromycin-resistant (37)
[15] = 18 h, Penicillin-resistant (19)

Compound `CC1(C)S[C@@H]2[C@H](NC(=O)[C@H](N)c3ccc(O)cc3)C(=O)N2[C@H]1C(=O)O` [Amoxycillin, amoxycillin] has a susceptible isolates ([1]; Shigella spp., breakpoints) of 43%, an MIC ([1]; read-out: MIC (mg/L) 50%) of 128 mg/L (≈ 350 µM) and an MIC ([1]; read-out: MIC (mg/L) 90%) greater than 128 mg/L. For the same compound, the MIC [2, 11] was 128 mg/L (≈ 350 µM), the “susceptibility of isolates” value ([2]; Yersinia enterocolitica) was “non susceptible” and the MIC ([2]; read-out: MIC (mg/L) 50%) was 128 mg/L (≈ 350 µM). For the same compound, the MIC ([2]; read-out: MIC (mg/L) 90%) was 128 mg/L (≈ 350 µM), the susceptible isolates ([3]; Salmonella spp., breakpoints) was 77% and the MIC ([3]; read-out: MIC (mg/L) 50%, Salmonella spp. N= 106) was 1 mg/L (≈ 2.74 µM). The MIC ([3]; read-out: MIC (mg/L) 90%, Salmonella spp. N= 106) was greater than 128 mg/L, the MIC50 [4] was 8 µg/mL (≈ 21.9 µM) and the MIC90 [4] was 16 µg/mL (≈ 43.8 µM). The “MIC Range” value [4] was 1 to 16 µg/mL, the “MIC Range” value ([5]; Ciprofloxacin-susceptible (94)) was no more than 0.008 to 8 µg/mL and the “MIC Range” value ([5]; Minocycline-resistant (37)) was no more than 0.008 to 8 µg/mL. The MIC90 [5, 12] was 0.5 µg/mL (≈ 1.37 µM), the MIC [5, 13] was 0.016 to 1 µg/mL (≈ 0.0438 to 2.74 µM) and the MIC [5, 14] was 0.016 to 8 µg/mL (≈ 0.0438 to 21.9 µM). The MIC [5, 15] was 0.25 to 8 µg/mL (≈ 0.684 to 21.9 µM), the MIC50 ([5]; Ciprofloxacin-resistant (21)) was 0.016 µg/mL (≈ 0.0438 µM) and the MIC50 ([5]; Ciprofloxacin-susceptible (94)) was 0.063 µg/mL (≈ 0.172 µM). The MIC90 ([5]; Ciprofloxacin-susceptible (94)) was 0.5 µg/mL (≈ 1.37 µM), the MIC50 ([5]; Erythromycin-resistant (37)) was 0.063 µg/mL (≈ 0.172 µM) and the MIC90 ([5]; Erythromycin-resistant (37)) was 0.5 µg/mL (≈ 1.37 µM). The MIC50 ([5]; Minocycline-resistant (37)) was 0.063 µg/mL (≈ 0.172 µM), the MIC90 ([5]; Minocycline-resistant (37)) was 0.5 µg/mL (≈ 1.37 µM) and the MIC50 ([5]; Penicillin-resistant (19)) was 0.5 µg/mL (≈ 1.37 µM). The MIC90 ([5]; Penicillin-resistant (19)) was 8 µg/mL (≈ 21.9 µM), the “susceptibility of isolates” value ([6]; Aeromonas spp.) was “non susceptible” and the MIC ([6]; read-out: MIC (mg/L) 50%) was greater than 128 mg/L. For the same compound, the MIC ([6]; read-out: MIC (mg/L) 90%) was greater than 128 mg/L, the MIC90 [7] was 128 µg/mL (≈ 350 µM) and the MIC90 ([7]; Staphylococcus aureus) was 64 µg/mL (≈ 175 µM). The MIC ([8]; read-out: MIC (mg/L) 50%) was 4 mg/L (≈ 10.9 µM), the MIC ([8]; read-out: MIC (mg/L) 90%) was 32 mg/L (≈ 87.6 µM) and the MIC50 [9] was 1 µg/mL (≈ 2.74 µM). The MIC90 [9] was 64 µg/mL (≈ 175 µM), the MIC [10, 11] was 16 to 128 mg/L (≈ 43.8 to 350 µM) and the MIC ([10]; read-out: MIC (mg/L) 50%) was 64 mg/L (≈ 175 µM). It also gave an MIC ([10]; read-out: MIC (mg/L) 90%) of 64 mg/L (≈ 175 µM).

In the case of `CO/N=C(\C(=O)N[C@@H]1C(=O)N2C(C(=O)O)=C(/C=C\c3scnc3C)CS[C@H]12)c1csc(N)n1` [Cefditoren, cefditoren], the MIC50 [4] is reported as 0.5 µg/mL (≈ 0.987 µM), the MIC90 [4] is reported as 1 µg/mL (≈ 1.97 µM) and the “MIC Range” value [4] is reported as 0.063 to 1 µg/mL. It also gave an MIC90 [5, 12] of 0.25 µg/mL (≈ 0.493 µM), an MIC [5, 13] of 0.008 to 1 µg/mL (≈ 0.0158 to 1.97 µM) and an MIC ([5]; 18 h, Ciprofloxacin-susceptible (94)) of 0.008 to 2 µg/mL (≈ 0.0158 to 3.95 µM). The MIC [5, 14] was 0.008 to 2 µg/mL (≈ 0.0158 to 3.95 µM), the MIC ([5]; 18 h, Minocycline-resistant (37)) was 0.008 to 2 µg/mL (≈ 0.0158 to 3.95 µM) and the MIC [5, 15] was 0.25 to 2 µg/mL (≈ 0.493 to 3.95 µM). The MIC50 ([5]; Ciprofloxacin-resistant (21)) was no more than 0.008 µg/mL, the MIC50 ([5]; Ciprofloxacin-susceptible (94)) was 0.063 µg/mL (≈ 0.124 µM) and the MIC90 ([5]; Ciprofloxacin-susceptible (94)) was 0.25 µg/mL (≈ 0.493 µM). For the same compound, the MIC50 ([5]; Erythromycin-resistant (37)) was 0.063 µg/mL (≈ 0.124 µM), the MIC90 ([5]; Erythromycin-resistant (37)) was 0.25 µg/mL (≈ 0.493 µM) and the MIC50 ([5]; Minocycline-resistant (37)) was 0.063 µg/mL (≈ 0.124 µM). For the same compound, the MIC90 ([5]; Minocycline-resistant (37)) was 0.25 µg/mL (≈ 0.493 µM), the MIC50 ([5]; Penicillin-resistant (19)) was 0.25 µg/mL (≈ 0.493 µM) and the MIC90 ([5]; Penicillin-resistant (19)) was 2 µg/mL (≈ 3.95 µM). The “MIC Range” value ([7]; Methicillin-resistant (38)) was 32 to 128 µg/mL, the “MIC Range” value ([7]; Methicillin-susceptible (9)) was 0.5 to 1 µg/mL and the MIC50 ([7]; Staphylococcus aureus, Methicillin-resistant (38)) was 128 µg/mL (≈ 253 µM). It also gave an MIC90 ([7]; Staphylococcus aureus, Methicillin-resistant (38), read-out: MIC90) of 128 µg/mL (≈ 253 µM), an MIC50 ([7]; Staphylococcus aureus, Methicillin-susceptible (9)) of 1 µg/mL (≈ 1.97 µM) and an MIC90 ([7]; Staphylococcus aureus, Methicillin-susceptible (9), read-out: MIC90) of 1 µg/mL (≈ 1.97 µM). The MIC50 [9] was 0.031 µg/mL (≈ 0.0612 µM), the MIC90 [9] was 0.031 µg/mL (≈ 0.0612 µM) and the “MIC Range” value [9] was 0.016 to 0.5 µg/mL.
